Data taken from PubChem BioAssay (NCI).
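In this assay, cells in 96-well plates receive the compound at five concentrations for 48 hours. Endpoints are linearly interpolated between the surrounding concentrations. Abbreviation: GI50, concentration required for 50% inhibition of growth. The concentration for full growth arrest is given as TGI.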

Assays:
Assay in all cases: NCI tumour cell line growth inhibition, 48 h
[1] = tested on: OVCAR-5 ovarian
[2] = tested on: MDA-MB-231 breast
[3] = tested on: PC-3 prostate
[4] = tested on: A549 NSCLC
[5] = tested on: IGROV1 ovarian
[6] = tested on: SW-620 colon
[7] = tested on: SK-MEL-2 melanoma
[8] = tested on: SNB-19 CNS
[9] = tested on: HCT-116 colon
[10] = tested on: KM12 colon
[11] = tested on: LOX IMVI melanoma
[12] = tested on: SK-MEL-28 melanoma
[13] = tested on: CAKI-1 renal
[14] = tested on: MOLT-4 leukemia
[15] = tested on: MCF7 breast
[16] = tested on: OVCAR-4 ovarian
[17] = tested on: HS 578T breast
[18] = tested on: NCI-H460 lung
[19] = tested on: DU-145 prostate
[20] = tested on: M14 melanoma
[21] = tested on: MDA-MB-435
[22] = tested on: K-562 leukemia
[23] = tested on: 786-0 renal
[24] = tested on: NCI-H522 lung
[25] = tested on: RXF 393 renal
[26] = tested on: OVCAR-8 ovarian
[27] = tested on: T-47D breast
[28] = tested on: MALME-3M melanoma
[29] = tested on: HCC-2998 colon
[30] = tested on: SN12C renal
[31] = tested on: UACC-62 melanoma
[32] = tested on: SF-268 CNS
[33] = tested on: BT-549 breast
[34] = tested on: NCI-H23 lung
[35] = tested on: EKVX NSCLC
[36] = tested on: OVCAR-3 ovarian
[37] = tested on: SF-539 CNS
[38] = tested on: SNB-75 CNS
[39] = tested on: RPMI-8226 leukemia
[40] = tested on: HL-60(TB) leukemia
[41] = tested on: NCI-H226 lung
[42] = tested on: A498 renal
[43] = tested on: ACHN renal
[44] = tested on: HT29 colon
[45] = tested on: U251 CNS
[46] = tested on: NCI/ADR-RES ovarian
[47] = tested on: TK-10 renal
[48] = tested on: COLO 205 colon
[49] = tested on: HCT-15 colon
[50] = tested on: UO-31 renal
[51] = tested on: HOP-62 NSCLC
[52] = tested on: CCRF-CEM leukemia
[53] = tested on: SF-295 CNS
[54] = tested on: SK-OV-3 ovarian
[55] = tested on: UACC-257 melanoma
[56] = tested on: SK-MEL-5 melanoma
[57] = tested on: HOP-92 NSCLC

SMILES: NS(=O)(=O)N(c1cc(C(F)(F)F)cc(C(F)(F)F)c1)C1CCN(Cc2ccc(C(F)(F)F)cc2)CC1
- GI50 [1]: 7.88 µM
- TGI [1]: 16 µM
- GI50 [2]: 9.65 µM
- TGI [2]: 20.8 µM
- GI50 [3]: 4.56 µM
- TGI [3]: 12.5 µM
- GI50 [4]: 7.35 µM
- TGI [4]: 15.6 µM
- GI50 [5]: 5.56 µM
- TGI [5]: 11.6 µM
- GI50 [6]: 6.77 µM
- TGI [6]: 15.4 µM
- GI50 [7]: 9.91 µM
- TGI [7]: 18.3 µM
- GI50 [8]: 9.39 µM
- TGI [8]: 20.2 µM
- GI50 [9]: 5.41 µM
- TGI [9]: 11.4 µM
- GI50 [10]: 6.81 µM
- TGI [10]: 14.9 µM
- GI50 [11]: 7.43 µM
- TGI [11]: 14 µM
- GI50 [12]: 8.5 µM
- TGI [12]: 17.7 µM
- GI50 [13]: 5.04 µM
- TGI [13]: 11.1 µM
- GI50 [14]: 3.77 µM
- TGI [14]: 15.9 µM
- GI50 [15]: 6.09 µM
- TGI [15]: 12.3 µM
- GI50 [16]: 6.89 µM
- TGI [16]: 14.5 µM
- GI50 [17]: 6.34 µM
- TGI [17]: 22.9 µM
- GI50 [18]: 7.49 µM
- TGI [18]: 16.4 µM
- GI50 [19]: 7.87 µM
- TGI [19]: 15.4 µM
- GI50 [20]: 7.57 µM
- TGI [20]: 14.5 µM
- GI50 [21]: 7.04 µM
- TGI [21]: 13.6 µM
- GI50 [22]: 0.409 µM
- TGI [22]: 10.3 µM
- GI50 [23]: 7.47 µM
- TGI [23]: 14.1 µM
- GI50 [24]: 6.42 µM
- TGI [24]: 13.2 µM
- GI50 [25]: 5.89 µM
- TGI [25]: 12.2 µM
- GI50 [26]: 8.35 µM
- TGI [26]: 17.4 µM
- GI50 [27]: 5.61 µM
- TGI [27]: 11.9 µM
- GI50 [28]: 7.47 µM
- TGI [28]: 14.2 µM
- GI50 [29]: 6.9 µM
- TGI [29]: 13.4 µM
- GI50 [30]: 6.86 µM
- TGI [30]: 13.7 µM
- GI50 [31]: 7.14 µM
- TGI [31]: 16.3 µM
- GI50 [32]: 7.55 µM
- TGI [32]: 17.9 µM
- GI50 [33]: 7.99 µM
- TGI [33]: 14.7 µM
- GI50 [34]: 6.88 µM
- TGI [34]: 14 µM
- GI50 [35]: 7.18 µM
- TGI [35]: 15.2 µM
- GI50 [36]: 6.23 µM
- TGI [36]: 12.6 µM
- GI50 [37]: 7.8 µM
- TGI [37]: 15.3 µM
- GI50 [38]: 2.86 µM
- TGI [38]: 13 µM
- GI50 [39]: 6.88 µM
- TGI [39]: 20.3 µM
- GI50 [40]: 1.63 µM
- TGI [40]: 7.84 µM
- GI50 [41]: 7.9 µM
- TGI [41]: 15.5 µM
- GI50 [42]: 5.61 µM
- TGI [42]: 12 µM
- GI50 [43]: 7.92 µM
- TGI [43]: 14.6 µM
- GI50 [44]: 2.89 µM
- TGI [44]: 10.2 µM
- GI50 [45]: 5.92 µM
- TGI [45]: 12.7 µM
- GI50 [46]: 6.82 µM
- TGI [46]: 13.3 µM
- GI50 [47]: 7.03 µM
- TGI [47]: 14.5 µM
- GI50 [48]: 7.86 µM
- TGI [48]: 14.6 µM
- GI50 [49]: 5.88 µM
- TGI [49]: 12.5 µM
- GI50 [50]: 3.17 µM
- TGI [50]: 9.87 µM
- GI50 [51]: 7.94 µM
- TGI [51]: 15 µM
- GI50 [52]: 8.98 µM
- TGI [52]: 24.2 µM
- GI50 [53]: 6.82 µM
- TGI [53]: 13.5 µM
- GI50 [54]: 9.26 µM
- TGI [54]: 22.2 µM
- GI50 [55]: 7.54 µM
- TGI [55]: 15 µM
- GI50 [56]: 7.63 µM
- TGI [56]: 14.7 µM

SMILES: CC1CCC(C(C)C2C(O)CC3C4CC=C5CC(O)CCC5(C)C4CCC32C)NC1 (configuration not stated)
- TGI [1]: > 100 µM
- TGI [2]: 81.6 µM
- TGI [3]: 95.4 µM
- TGI [4]: > 100 µM
- TGI [6]: > 100 µM
- TGI [7]: > 100 µM
- TGI [8]: 74.5 µM
- TGI [9]: > 100 µM
- TGI [11]: 51 µM
- TGI [12]: > 100 µM
- TGI [14]: 35.8 µM
- TGI [15]: > 100 µM
- TGI [16]: 53.4 µM
- TGI [17]: > 100 µM
- TGI [18]: > 100 µM
- TGI [19]: > 100 µM
- TGI [20]: > 100 µM
- TGI [21]: 65.8 µM
- TGI [22]: > 100 µM
- TGI [23]: 89.9 µM
- TGI [24]: > 100 µM
- TGI [25]: > 100 µM
- TGI [26]: 29.3 µM
- TGI [27]: > 100 µM
- TGI [28]: 55.2 µM
- TGI [29]: 53.1 µM
- TGI [57]: 69.8 µM
- TGI [30]: 47.2 µM
- TGI [31]: > 100 µM
- TGI [32]: > 100 µM
- TGI [33]: > 100 µM
- TGI [34]: > 100 µM
- TGI [35]: > 100 µM
- TGI [37]: > 100 µM
- TGI [38]: > 100 µM
- TGI [40]: 52.8 µM
- TGI [41]: > 100 µM
- TGI [42]: > 100 µM
- TGI [43]: > 100 µM
- TGI [44]: > 100 µM
- TGI [45]: 70.3 µM
- TGI [46]: 58.2 µM
- TGI [47]: 30.4 µM
- TGI [48]: > 100 µM
- TGI [49]: > 100 µM
- TGI [50]: > 100 µM
- TGI [51]: 66 µM
- TGI [54]: > 100 µM
- TGI [55]: > 100 µM
- TGI [56]: > 100 µM
